From patent US20260159500A1, “KINESIN KIF18A INHIBITOR AND USE THEREOF” (SHANGHAI APEIRON THERAPEUTICS COMPANY LIMITED, priority 2022, published 2026)
Where two headings read alike, the source gives them in different places.

Legend:
[1] = target: T1, Human KIF18A (amino acid sequence 1-417) (Homo sapiens, UniProt Q8NI77); test: Enzymatic activity test (ADP-Glo, microtubule-stimulated KIF18A ATPase); assay type: biochemical; conditions: 60 μg/mL microtubules, 25 μM ATP, 2.5 nM KIF18A protein, 120 min at ambient temperature, read-out: KIF18A_nM
T1 construct: purchased Viva Biotech (Shanghai) Ltd
T1 sequence (Q8NI77 1-417): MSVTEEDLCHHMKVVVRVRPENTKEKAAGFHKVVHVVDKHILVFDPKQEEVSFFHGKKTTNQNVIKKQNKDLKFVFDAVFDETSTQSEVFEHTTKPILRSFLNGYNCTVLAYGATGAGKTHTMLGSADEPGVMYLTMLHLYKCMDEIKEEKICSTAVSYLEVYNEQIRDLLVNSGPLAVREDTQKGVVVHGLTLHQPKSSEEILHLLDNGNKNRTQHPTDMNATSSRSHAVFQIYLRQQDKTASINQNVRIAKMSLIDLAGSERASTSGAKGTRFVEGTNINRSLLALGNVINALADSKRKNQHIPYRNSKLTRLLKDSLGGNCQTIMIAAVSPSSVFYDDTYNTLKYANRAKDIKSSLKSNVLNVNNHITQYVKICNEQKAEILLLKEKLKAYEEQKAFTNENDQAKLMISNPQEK
Description: Human KIF18A (amino acid sequence 1-417) was purchased from Viva Biotech (Shanghai) Ltd.; the ADP-Glo™ protein kinase kit was acquired from Promega, USA; tubulin was sourced from Cytoskeleton, USA; and the 384-well assay plate and Envision multifunctional microplate reader were obtained from PerkinElmer, USA.
Dissolve the compound powder in DMSO to prepare a stock solution of 10 mM. Then perform gradient dilution for the compounds in the microplate to achieve a final concentration of 0-10 μM. Then, add 2.5 μL each of tubulin, compound, ATP, and KIF18A protein to the microplate in sequence for reaction at ambient temperature for 120 min. The final concentrations in the enzyme reaction are 60 μg/mL for microtubules, 25 μM for ATP, and 2.5 nM for KIF18A protein. After the enzyme reaction, add 10 μL of ADP-GLO reaction reagent to each well and incubate at ambient temperature for 30 min. After that, add 20 μL of detection reagent to each well and incubate at ambient temperature for 30 min in the dark. Finally, perform chemiluminescence detection using the PerkinElmer Envision.

OVCAR3 cells = test: Cell proliferation activity test in OVCAR3 cells (CyQUANT Direct); assay type: cell-based; conditions: 3 days incubation, CyQUANT fluorescence detection, read-out: OVCAR-3_IC50_nM
Description: OVCAR3 cells were purchased from Nanjing Cobioer Biosciences Co., Ltd. RPMI-1640 medium, fetal bovine serum, and the CyQUANT Direct Cell Proliferation Assay kit were purchased from Thermo Fisher Scientific, USA; 96-well cell culture plates were sourced from Corning, USA.
Culture OVCAR3 cells with RPMI-1640 medium containing 10% fetal bovine serum and incubate them in a 5% CO2 incubator at 37° C. Only cells in the logarithmic growth phase can be used for the test.
Inoculate OVCAR3 cells into a 96-well cell culture plate at 90 μL per well and incubate overnight in a 5% CO2 incubator at 37° C. Dissolve the compound powder in DMSO to prepare a stock solution of 10 mM. Then perform gradient dilution for the compounds in the microplate to achieve a final concentration of 0-10 μM. Add 10 μL of cell culture medium containing compounds to each well to make the final DMSO content 0.2%. Incubate the cell plates in a 5% CO2 incubator at 37° C. for 3 days. Add 100 μL of CyQUANT detection reagent to each well, react at 37° C. for 60 min, and perform fluorescence detection using the PerkinElmer Envision.

HT29 cells = test: CyQuant cell proliferation activity test in HT29 cells; assay type: cell-based; conditions: Homo sapiens, HT-29, 72 h, 2000 cells per well, 3 days incubation, IC50 by XLFIT, read-out: HT29_IC50_nM
Description: HT29 cells were purchased from Nanjing Cobioer Biosciences Co., Ltd.; RPMI-1640 medium, fetal bovine serum, Trypsin-EDTA (0.25%), 96-well plates, and CyQuant reagents were purchased from ThermoFisher (USA); DMSO was purchased from SIGMA (USA).
Culture HT29 cells with RPMI-1640 containing 10% fetal bovine serum under the condition of 37° C. and 5% CO2. Only cells in the logarithmic growth phase can be used for the test.
Use the CyQuant reagent to detect the proliferation inhibitory activity of compounds on HT29 cells. Adjust the cell density and inoculate 100 μL per well into the 96-well plate (HT29 at 2000 cells per well), then incubate overnight under the condition of 37° C. and 5% CO2. Add compounds of various target concentrations (initial concentration of 3000 nM, 3-fold dilution, 9 concentration gradients), and make the DMSO content 0.2%. Incubate the cell plates at 37° C. and 5% CO2 for 3 days. Incubate with CyQuant reagent for 1 h, read the plate by Envision, and calculate IC50 using XLFIT.

Row | Compound | IC50 [1] [nM] | IC50 (OVCAR3 cells; Homo sapiens, OVCAR-3, 72 h) [nM] | IC50 (HT29 cells) [nM] | IC50 (OVCAR3 cells) [nM]
1 | O=C(Nc1nc(N2CCC(F)(F)CC2)nc2c1COC2)c1ccc(NS(=O)(=O)CCO)cc1N1CCC2(CC1)CC2 [Example 2, N-(2-(4,4-difluoropiperidin-1-yl)-5,7-dihydrofuro[3,4-d]pyrimidin-4-yl)-4-((2-hydroxyethyl)sulfonamide)-2-(6-azaspiro[2.5]octan-6-yl)benzamide] | 251 | 899 |  | 
2 | O=C(Nc1cc2nccn2c(N2CCC(F)(F)CC2)n1)c1ccc(NS(=O)(=O)CCO)cc1N1CCC2(CC1)CC2 [Example 21, N-(5-(4,4-difluoropiperidin-1-yl)imidazolo[1,2-c]pyrimidin-7-yl)-4-((2-hydroxyethyl)sulfonamide)-2-(6-azaspiro[2.5]octan-6-yl)benzamide] |  | 358 |  | 
3 | O=C(Nc1nc(N2CCC(F)(F)CC2)cc2nccn12)c1ccc(NS(=O)(=O)CCO)cc1N1CCC2(CC1)CC2 [Example 22] | 1940 |  |  | 
4 | O=C(Nc1nc(N2CCC(F)(F)CC2)c2occc2c1Cl)c1ccc(NS(=O)(=O)CCO)cc1N1CCC2(CC1)CC2 [Example 33, N-(4-chloro-7-(4,4-difluoropiperidin-1-yl)furo[2,3-c]pyridin-5-yl)-4-(2-hydroxyethylsulfonamido)-2-(6-azaspiro[2.5]octan-6-yl)benzamide] | 1640 |  |  | 
5 | O=C(Nc1cc2cccnc2c(C2CCN(CC(F)(F)F)CC2)n1)c1ccc(NS(=O)(=O)CCO)cc1N1CCC2(CC1)CC2 [Example 50, 4-(2-hydroxyethylsulfonamido)-2-(6-azaspiro[2.5]octan-6-yl)-N-(8-(1-(2,2,2-trifluoroethyl)piperidin-4-yl)-1,7-naphthyridin-6-yl)benzamide] | 1490 |  |  | 
6 | COc1ccc2cc(NC(=O)c3ccc(NS(=O)(=O)CCO)cc3N3CCC4(CC3)CC4)c(F)c(N3CCC(F)(F)CC3)c2n1 [Example 77, N-(8-(4,4-difluoropiperidin-1-yl)-7-fluoro-2-methoxyquinolin-6-yl)-4-((2-hydroxyethyl)sulfonamido)-2-(6-azaspiro[2.5]oct-6-yl)benzamide] | 848 | 745 |  | 
7 | CP(C)(=O)c1cnc2c(N3CCC(F)(F)CC3)cc(NC(=O)c3ccc(NS(=O)(=O)CCO)cc3N3CCC4(CC3)CC4)cc2c1 [Example 85, N-(8-(4,4-difluoropiperidin-1-yl)-3-(dimethylphosphoryl)quinolin-6-yl)-4-(2-hydroxyethylsulfonamido)-2-(6-azaspiro[2.5]octan-6-yl)benzamide] | > 3000 |  |  | 
8 | O=C(Nc1cc(N2CCC(F)(F)CC2)c2ncccc2n1)c1ccc(NS(=O)(=O)CCO)cc1N1CCC2(CC1)CC2 [Example 92, N-(4-(4,4-difluoropiperidin-1-yl)-1,5-naphthyridin-2-yl)-4-(2-hydroxyethylsulfonamido)-2-(6-azaspiro[2.5]octan-6-yl)benzamide] | 2260 |  |  | 
9 | O=C(Nc1cc(N2CCC(F)(F)CC2)nc2cccnc12)c1ccc(NS(=O)(=O)CCO)cc1N1CCC2(CC1)CC2 [Example 93, N-(2-(4,4-difluoropiperidin-1-yl)-1,5-naphthyridin-4-yl)-4-(2-hydroxyethylsulfonamido)-2-(6-azaspiro[2.5]octan-6-yl)benzamide] | > 3000 |  |  | 
10 | C[C@H](CO)S(=O)(=O)Nc1ccc(C(=O)Nc2cc3sc(N)nc3c(N3CCC(F)(F)CC3)c2F)c(N2CCC3(CC2)CC3)c1 [Example 94, N-[2-amino-4-(4,4-difluoropiperidin-1-yl)-5-fluoro-1,3-benzothiazol-6-yl]-2-{6-azaspiro[2.5]octan-6-yl}-4-[(2R)-1-hydroxypropane-2-sulfonamido]benzamide] | 255 | 5.9 |  | 
11 | C[C@@H](CO)S(=O)(=O)Nc1ccc(C(=O)Nc2cc3sc(N)nc3c(N3CCC(F)(F)CC3)c2F)c(N2CCC3(CC2)CC3)c1 [Example 95, N-[2-amino-4-(4,4-difluoropiperidin-1-yl)-5-fluoro-1,3-benzothiazol-6-yl]-2-{6-azaspiro[2.5]octan-6-yl}-4-[(2S)-1-hydroxypropane-2-sulfonamido]benzamide] | 242 | 4.7 |  | 

Further compounds by falling IC50 [1], results first:

Row | IC50 [1] [nM] | IC50 (OVCAR3 cells; Homo sapiens, OVCAR-3, 72 h) [nM] | IC50 (HT29 cells) [nM] | IC50 (OVCAR3 cells) [nM] | Compound
12 | 241 | 1480 |  |  | CC(C)(C)OC(=O)N1Cc2nc(NC(=O)c3ccc(NS(=O)(=O)CCO)cc3N3CCC4(CC3)CC4)nc(N3CCC(F)(F)CC3)c2C1 [Example 6, Tert-butyl 4-(4,4-difluoropiperidin-1-yl)-2-(4-(2-hydroxyethylsulfonamido)-2-(6-azaspiro[2.5]octan-6-yl)benzoylamino)-5H-pyrrolo[3,4-d]pyrimidine-6 (7H)-carboxylate]
13 | 190 | 1030 |  |  | O=C(Nc1nc(N2CCC(F)(F)CC2)nc2c1CCC2)c1ccc(NS(=O)(=O)CCO)cc1N1CCC2(CC1)CC2 [Example 1]
14 | 150 |  |  |  | CC(CO)S(=O)(=O)Nc1ccc(C(=O)Nc2cc3cccnc3c(N3[C@H](C)COC[C@H]3C)n2)c(N2CCC3(CC2)CC3)c1 (stereo partly drawn) [Example 102, 2-{6-Azaspiro[2.5]octan-6-yl}-N-[8-((3R,5R)-3,5-dimethylmorpholino)-1,7-naphthyridin-6-yl]-4-[1-hydroxypropane-2-sulfonamido]benzamide]
15 | 139 |  |  |  | CC(CO)S(=O)(=O)Nc1ccc(C(=O)Nc2cc3sc(N)nc3c(N3CCC(F)(F)CC3)c2F)c(C2=CCC3(CC2)CC3)c1 (stereo not drawn) [Example 101, N-(2-amino-4-(4,4-difluoropiperidin-1-yl)-5-fluorobenzo[d]thiazol-6-yl)-4-((2-hydroxy-1-methylethyl)sulfonamido)-2-(spiro[2.5]oct-5-en-6-yl)benzamide]
16 | 131 |  | 126 |  | Cn1ccc2c(N3CCC(F)(F)CC3)nc(NC(=O)c3ccc(NS(=O)(=O)CCO)cc3N3CCC4(CC3)CC4)cc21 [Example 38]
17 | 77 |  |  |  | O=C(Nc1cc2ncccc2c(N2CCC(F)(F)CC2)n1)c1ccc(NS(=O)(=O)CCO)cc1N1CCC2(CC1)CC2 [Example 57]
18 | 68 | 566 |  |  | O=C(Nc1nc2c(c(N3CCC(F)(F)CC3)n1)CCC2)c1ccc(NS(=O)(=O)CCO)cc1N1CCC2(CC1)CC2 [Example 3, N-(4-(4,4-difluoropiperidin-1-yl)-6,7-dihydro-5H-cyclopenta[d]pyrimidin-2-yl)-4-((2-hydroxyethyl)sulfonamide)-2-(6-azaspiro[2.5]oct-6-yl)benzamide]
19 | 42 |  |  | > 10000 | N-(5-(4,4-difluoropiperidin-1-yl) imidazo[1,2-c]pyrimidin-7-yl)-6-((2-hydroxyethyl)sulfonamido)-4-(6-azaspiro[2.5]octan-6-yl) nicotinamide [Example 23]
20 | 27 | 15 |  |  | O=C(Nc1cc(N2CCC(F)(F)CC2)c2nccnc2c1)c1ccc(NS(=O)(=O)CCO)cc1N1CCC2(CC1)CC2 [Example 83, N-(8-(4,4-difluoropiperidin-1-yl)quinoxalin-6-yl)-4-((2-hydroxyethyl)sulfonamido)-2-(6-azaspiro[2.5]octan-6-yl)benzamide]
